Assay results: ChEMBL document CHEMBL1154173, “L-proline-catalysed facile green protocol for the synthesis and antimycobacterial evaluation of [1,4]-thiazines” (2009)
Converted amounts (≈) assume the structure as drawn.

How the values were obtained:
[1] = system: Mycobacterium tuberculosis; test: Antimycobacterial activity against Mycobacterium tuberculosis H37Rv by agar dilution method; type: functional
[2] = system: Mycolicibacterium smegmatis; test: Antimycobacterial activity against […] Mycobacterium smegmatis MC2 by agar dilution method; type: functional

Question: How did the MIC [1] turn out when `CCOC(=O)C1C(c2cccc(F)c2)NC(c2cccc(F)c2)C(C(=O)c2ccc(Cl)cc2)S1(=O)=O` (racemic) was run?
Answer: 5.86 µM (≈ 3.13 µg/mL)

Question: Which MIC [1] does the source give for `CCOC(=O)C1C(c2ccccc2[N+](=O)[O-])NC(c2ccccc2[N+](=O)[O-])C(C(=O)c2ccc(Cl)cc2)S1(=O)=O` (racemic) here?
Answer: 3.03 µM (≈ 1.78 µg/mL)

Question: `CCOC(=O)C1C(c2ccc(C)cc2)N(C)C(c2ccc(C)cc2)C(C(=O)c2ccc(Cl)cc2)S1(=O)=O` (racemic) was tested. Which MIC [1] did it give?
Answer: 5.8 µM (≈ 3.13 µg/mL)

Question: For `CO[C@H]1/C=C/O[C@@]2(C)Oc3c(C)c(O)c4c(O)c(c(/C=N/N5CCN(C)CC5)c(O)c4c3C2=O)NC(=O)/C(C)=C\C=C\[C@H](C)[C@H](O)[C@@H](C)[C@@H](O)[C@@H](C)[C@H](OC(C)=O)[C@@H]1C` [RIFAMPIN], which MIC [1] is on record?
Answer: 0.12 µM (≈ 0.0988 µg/mL)

Question: What does the source list for `CCOC(=O)C1C(c2ccc(Cl)cc2)N(C)C(c2ccc(Cl)cc2)C(C(=O)c2ccc(Cl)cc2)S1(=O)=O` (racemic)?
Answer: MIC [2]: 43 µM (≈ 25 µg/mL); MIC [1]: 5.39 µM (≈ 3.13 µg/mL)

Question: With `CCOC(=O)C1C(c2ccc(OC)cc2)N(Cc2ccccc2)C(c2ccc(OC)cc2)C(C(=O)c2ccc(Cl)cc2)S1(=O)=O` (racemic) as the molecule, how does the MIC [1] read?
Answer: 9.64 µM (≈ 6.25 µg/mL)

Question: With `NNC(=O)c1ccncc1` [ISONIAZID] as the molecule, how does the MIC [2] read?
Answer: 45.6 µM (≈ 6.25 µg/mL)

Question: And the MIC [1]?
Answer: 0.36 µM (≈ 0.0494 µg/mL)

Question: With `CCOC(=O)C1C(c2cccs2)NC(c2cccs2)C(C(=O)c2ccc(Cl)cc2)S1(=O)=O` (racemic) as the molecule, how does the MIC [2] read?
Answer: 12.2 µM (≈ 6.25 µg/mL)

Question: What about the MIC [1] of the same molecule?
Answer: 12.2 µM (≈ 6.25 µg/mL)

Question: `NC(=O)c1cnccn1` [PYRAZINAMIDE] was tested. Which MIC [1] did it give?
Answer: 50.8 µM (≈ 6.25 µg/mL)

Question: What does the source list for `CCOC(=O)C1C(c2ccc(C)cc2)N(Cc2ccccc2)C(c2ccc(C)cc2)C(C(=O)c2ccc(Cl)cc2)S1(=O)=O` (racemic)?
Answer: MIC [2]: 40.6 µM (≈ 25 µg/mL); MIC [1]: 20.3 µM (≈ 12.5 µg/mL)

Question: `CCOC(=O)C1C(c2ccc([N+](=O)[O-])cc2)NC(c2ccc([N+](=O)[O-])cc2)C(C(=O)c2ccc(Cl)cc2)S1(=O)=O` (racemic) was tested. Which MIC [2] did it give?
Answer: 10.6 µM (≈ 6.25 µg/mL)

Question: What about the MIC [1] of the same molecule?
Answer: 0.68 µM (≈ 0.4 µg/mL)

Question: With `CCOC(=O)C1C(c2cccc3ccccc23)NC(c2cccc3ccccc23)C(C(=O)c2ccc(Cl)cc2)S1(=O)=O` (racemic) as the molecule, how does the MIC [2] read?
Answer: 20.9 µM (≈ 12.5 µg/mL)

Question: And the MIC [1]?
Answer: 10.4 µM (≈ 6.25 µg/mL)

Question: What does the source list for `CCOC(=O)C1C(c2ccccc2C)N(C)C(c2ccccc2C)C(C(=O)c2ccc(Cl)cc2)S1(=O)=O` (racemic)?
Answer: MIC [2]: 23.1 µM (≈ 12.5 µg/mL); MIC [1]: 11.6 µM (≈ 6.25 µg/mL)

Question: `CCOC(=O)C1C(c2ccccc2Br)N(C)C(c2ccccc2Br)C(C(=O)c2ccc(Cl)cc2)S1(=O)=O` (racemic) was tested. Which MIC [2] did it give?
Answer: 18.7 µM (≈ 12.5 µg/mL)

Question: What about the MIC [1] of the same molecule?
Answer: 9.33 µM (≈ 6.25 µg/mL)

Question: With `CCOC(=O)C1C(c2ccc(F)cc2)N(Cc2ccccc2)C(c2ccc(F)cc2)C(C(=O)c2ccc(Cl)cc2)S1(=O)=O` (racemic) as the molecule, how does the MIC [2] read?
Answer: 40.1 µM (≈ 25 µg/mL)

Question: And the MIC [1]?
Answer: 5.02 µM (≈ 3.13 µg/mL)

Question: With `CC[C@@H](CO)NCCN[C@@H](CC)CO` [ETHAMBUTOL] as the molecule, how does the MIC [1] read?
Answer: 7.64 µM (≈ 1.56 µg/mL)

Question: `CCOC(=O)C1C(c2ccco2)NC(c2ccco2)C(C(=O)c2ccc(Cl)cc2)S1(=O)=O` (racemic) was tested. Which MIC [1] did it give?
Answer: 6.55 µM (≈ 3.13 µg/mL)

Question: Which MIC [2] does the source give for `CCOC(=O)C1C(c2ccccc2)N(Cc2ccccc2)C(c2ccccc2)C(C(=O)c2ccc(Cl)cc2)S1(=O)=O` (racemic) here?
Answer: 42.5 µM (≈ 25 µg/mL)

Question: What about the MIC [1] of the same molecule?
Answer: 42.5 µM (≈ 25 µg/mL)

Question: How did the MIC [2] turn out when `CCOC(=O)C1C(c2ccc(Cl)cc2)NC(c2ccc(Cl)cc2)C(C(=O)c2ccc(Cl)cc2)S1(=O)=O` (racemic) was run?
Answer: 11 µM (≈ 6.25 µg/mL)

Question: What about the MIC [1] of the same molecule?
Answer: 2.75 µM (≈ 1.56 µg/mL)

Question: For `CCOC(=O)C1C(c2ccc(OC)cc2)NC(c2ccc(OC)cc2)C(C(=O)c2ccc(Cl)cc2)S1(=O)=O` (racemic), which MIC [2] is on record?
Answer: 1.4 µM (≈ 0.781 µg/mL)

Question: What about the MIC [1] of the same molecule?
Answer: 0.72 µM (≈ 0.402 µg/mL)

Question: `CCOC(=O)C1C(c2ccccc2OC)NC(c2ccccc2OC)C(C(=O)c2ccc(Cl)cc2)S1(=O)=O` (racemic) was tested. Which MIC [2] did it give?
Answer: 11.2 µM (≈ 6.25 µg/mL)

Question: And the MIC [1]?
Answer: 5.61 µM (≈ 3.13 µg/mL)

Question: With `CCOC(=O)C1C(c2ccc(N(C)C)cc2)NC(c2ccc(N(C)C)cc2)C(C(=O)c2ccc(Cl)cc2)S1(=O)=O` (racemic) as the molecule, how does the MIC [1] read?
Answer: 10.7 µM (≈ 6.25 µg/mL)

Question: What does the source list for `CCOC(=O)C1C(c2cccc(F)c2)N(Cc2ccccc2)C(c2cccc(F)c2)C(C(=O)c2ccc(Cl)cc2)S1(=O)=O` (racemic)?
Answer: MIC [2]: 40.1 µM (≈ 25 µg/mL); MIC [1]: 10 µM (≈ 6.25 µg/mL)

Question: `CCOC(=O)C1C(c2ccc(Cl)cc2Cl)NC(c2ccc(Cl)cc2Cl)C(C(=O)c2ccc(Cl)cc2)S1(=O)=O` (racemic) was tested. Which MIC [1] did it give?
Answer: 1.23 µM (≈ 0.782 µg/mL)

Question: What does the source list for `CCOC(=O)C1C(c2ccccc2)N(C)C(c2ccccc2)C(C(=O)c2ccc(Cl)cc2)S1(=O)=O` (racemic)?
Answer: MIC [2]: 48.8 µM (≈ 25 µg/mL); MIC [1]: 24.4 µM (≈ 12.5 µg/mL)

Question: Which MIC [2] does the source give for `CCOC(=O)C1C(c2ccco2)N(C)C(c2ccco2)C(C(=O)c2ccc(Cl)cc2)S1(=O)=O` (racemic) here?
Answer: 50.8 µM (≈ 25 µg/mL)

Question: What about the MIC [1] of the same molecule?
Answer: 6.36 µM (≈ 3.13 µg/mL)

Question: Which MIC [2] does the source give for `CCOC(=O)C1C(c2cccc([N+](=O)[O-])c2)N(C)C(c2cccc([N+](=O)[O-])c2)C(C(=O)c2ccc(Cl)cc2)S1(=O)=O` (racemic) here?
Answer: 41.5 µM (≈ 25 µg/mL)

Question: And the MIC [1]?
Answer: 20.8 µM (≈ 12.5 µg/mL)

Question: For `CCOC(=O)C1C(c2ccc(Cl)cc2)N(Cc2ccccc2)C(c2ccc(Cl)cc2)C(C(=O)c2ccc(Cl)cc2)S1(=O)=O` (racemic), which MIC [2] is on record?
Answer: 38 µM (≈ 25 µg/mL)

Question: And the MIC [1]?
Answer: 9.51 µM (≈ 6.25 µg/mL)

Question: How did the MIC [2] turn out when `CCOC(=O)C1C(c2ccc(C)cc2)NC(c2ccc(C)cc2)C(C(=O)c2ccc(Cl)cc2)S1(=O)=O` (racemic) was run?
Answer: 2.97 µM (≈ 1.56 µg/mL)

Question: And the MIC [1]?
Answer: 1.48 µM (≈ 0.779 µg/mL)

Question: `CCOC(=O)C1C(c2ccccc2)NC(c2ccccc2)C(C(=O)c2ccc(Cl)cc2)S1(=O)=O` (racemic) was tested. Which MIC [2] did it give?
Answer: 50.2 µM (≈ 25 µg/mL)

Question: And the MIC [1]?
Answer: 12.6 µM (≈ 6.25 µg/mL)

Question: Which results are given for `CCOC(=O)C1C(c2cccc([N+](=O)[O-])c2)NC(c2cccc([N+](=O)[O-])c2)C(C(=O)c2ccc(Cl)cc2)S1(=O)=O` (racemic)?
Answer: MIC [2]: 10.6 µM (≈ 6.25 µg/mL); MIC [1]: 5.32 µM (≈ 3.13 µg/mL)
